The target of experiment [1] is T1, hemoglobin in stool samples (Homo sapiens, UniProt P68871+P69905). As to the kind of experiment: 3-Day shipping simulation, hemoglobin % recovery by ELISA.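 Further: stool samples put through shipping stress in a thermal cycler, hemoglobin quantified by ELISA before and after, stability given as post-stress % of the pre-stress level.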 Also noted: from tissue; host or cells: stool samples.
Experiment [2] has as its target T2, Hb (Homo sapiens, UniProt P68871+P69905).
T2 construct: To assess the stability of hemoglobin in stool samples, samples were exposed to simulated shipping stress conditions; from tissue; host or cells: stool samples
In words: Appendix B additive screen, % Hb Recovery.

In experiment [3] the target is T1, hemoglobin in stool samples. In words: Accelerated shipping simulation (35C 16 hour challenge), hemoglobin % recovery by ELISA.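 Further: stool hemoglobin measured by ELISA before and after thermal-cycler shipping stress, stability given as percent of pre-stress hemoglobin recovered afterwards.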 Also noted: from tissue; host or cells: stool samples.
For experiment [4] the target is unchanged. In words: 7-Day shipping simulation, hemoglobin % recovery by ELISA. The arrangement: from tissue; host or cells: stool samples. The method, then: (§1) To assess the stability of hemoglobin in stool samples, samples were exposed to simulated shipping stress conditions using a thermal cycler. […] An ELISA based detection method is used to determine the hemoglobin concentrations of samples before and after exposure to the shipping simulation. Hemoglobin stability is calculated as a % recovery of hemoglobin after the samples have been exposed to the shipping simulation.
To assess the stability of hemoglobin in stool samples beyond 3 days, a 7-Day shipping simulation was created.

Experiment [5] has the same target. As to the kind of experiment: 3-Day extreme temperature shipping simulation, hemoglobin % recovery by ELISA. The arrangement: from tissue; host or cells: stool samples. The method, then:
as §1
As an additional challenge, a shipping simulation meant to represent a “worst case” scenario was created using extreme temperatures.

Experiment [6] has as its target T3, hemoglobin (Hb) (Homo sapiens, UniProt P68871+P69905).
T3 construct: To assess the stability of hemoglobin in stool samples, samples were exposed to simulated shipping stress conditions; from tissue; host or cells: stool samples
In words: Appendix B: additives in Hb Collection Buffer, % Hb Recovery.

[7] abbreviates: concentrations and buffer pH 6.5 or 7.4 as in the 14th table.
Setting [8] is: concentrations and buffer pH 6.5 or 7.4 as in the 13th table.
The mark [9] stands for this setting: concentrations and buffer pH 6.5 or 7.4 as in the 15th table.

T3 sequence (P69905 2-142 limits assumed): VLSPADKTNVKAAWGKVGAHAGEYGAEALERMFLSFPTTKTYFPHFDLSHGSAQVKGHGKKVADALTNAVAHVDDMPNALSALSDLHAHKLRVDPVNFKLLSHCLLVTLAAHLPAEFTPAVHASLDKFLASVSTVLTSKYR
T3 sequence (P68871 2-147 limits assumed): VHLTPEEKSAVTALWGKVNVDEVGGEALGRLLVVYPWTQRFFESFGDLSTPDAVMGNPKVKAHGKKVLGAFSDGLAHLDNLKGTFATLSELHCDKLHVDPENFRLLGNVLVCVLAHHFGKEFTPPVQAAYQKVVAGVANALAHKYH
T1 sequence (P69905 2-142 limits assumed): as the sequence (P69905 2-142 limits assumed) above
T1 sequence (P68871 2-147 limits assumed): as the sequence (P68871 2-147 limits assumed) above
T2 sequence (P69905 2-142 limits assumed): as the sequence (P69905 2-142 limits assumed) above
T2 sequence (P68871 2-147 limits assumed): as the sequence (P68871 2-147 limits assumed) above

With `[Cl-].[Cl-].[Mg+2]` [Magnesium Chloride], the Results result in experiment [1] (additive concentration 5 mM), in experiment [1] (additive concentration 10 mM), in experiment [1] (additive concentration 20 mM), in experiment [1] (additive concentration 30 mM), in experiment [1] (additive concentration 40 mM) and in experiment [1] (additive concentration 50 mM) was “Magnesium Cation shows” throughout. Moreover, in experiment [2], the Results entry is given as “Magnesium Cation shows”.

Turning to `C[N+](C)(C)[O-]` [Trimethylamine N-oxide (TMANO)], the Results result in experiment [3] (additive concentration 500 uM) is on record as “No Improvement”; in experiment [3] (additive concentration 5 mM), “No Improvement”; in experiment [3] (additive concentration 50 mM), “No Improvement”; in experiment [3] (additive concentration 87 mM) it was “No Improvement”; in experiment [1] (additive concentration 1.1M), “Slight Improvement”; in experiment [1] (additive concentration 2.15M), “Slight Improvement”. Further, the Results result in experiment [1] (additive concentration 3M), in experiment [1] (additive concentration 3.5M), in experiment [1] (additive concentration 4M) and in experiment [2] was “No Improvement” in each case.

Regarding `Cl.N` [Ammonium Chloride], the Results entry in experiment [2] is given as “No Improvement”.

Turning to `CC(=O)O.N` [Ammonium Acetate], the Results result in experiment [2] is given as “No Improvement”.

With `C=CC1=C(C)c2cc3[n-]c(cc4nc(cc5[n-]c(cc1n2)c(C)c5C=C)C(C)=C4CCC(=O)O)c(CCC(=O)O)c3C.[Zn+2]` [Protoporphyrin IX Zn, Protoporphyrin IX Zinc], the Results entry in experiment [3] (additive concentration 1 uM, pH 6.5) is on record as “Improvement”; in experiment [3] (additive concentration 1 uM, pH 7.4), “Improvement”; in experiment [6] (Additive Concentration 0.001 uM) it was “No Improvement”; in experiment [6] (Additive Concentration 0.01 uM) it was “Improvement in % Hb”; in experiment [6] (Additive Concentration 0.1 uM), “Improvement in % Hb”; in experiment [6] (Additive Concentration 1 uM) it was “Improvement in % Hb”. Also, the Results entry in experiment [6] (additive concentration 10 uM) and in experiment [6] (additive concentration 100 uM) was “Improvement in % Hb” throughout. For the same compound, the “Notes (Hb stability vs Hb Collection Buffer)” value in experiment [4] (setting [7]), in experiment [1] (setting [8]) and in experiment [5] (setting [9]) was “Improved” each time.

With `[Ca+2].[Cl-].[Cl-]` [Calcium Chloride (anhydrous)], the Results entry in experiment [2] is “Calcium cation shows”.

Consider `OCCO` [Ethylene Glycol], for which, in experiment [2], the Results entry is recorded as “No Improvement”.

With `NCC(=O)O` [Glycine], in experiment [2], the Results entry is “No Improvement”.

Take `Cl.Cn1sccc1=O` [2-methyl-4-isothiazolin-3-one-hydrochloride]: the Results entry in experiment [2] was “No Improvement”.

`O=C([O-])c1ccccc1.[Na+]` [Sodium Benzoate]: the Results entry in experiment [1] (Additive Concentration 0.03%), in experiment [1] (Additive Concentration 0.04%), in experiment [1] (Additive Concentration 0.05%), in experiment [1] (Additive Concentration 0.06%), in experiment [1] (Additive Concentration 0.10%) and in experiment [1] (Additive Concentration 0.50%) was “No improvement” throughout. Also, the Results result in experiment [1] (Additive Concentration 1%) is given as “No improvement”; in experiment [2], “No Improvement”.

As for `[Cl-].[K+]` [Potassium Chloride], in experiment [2], the Results result is given as “No Improvement”.

As for Magnesium Gluconate, the Results result in experiment [3] (additive concentration 1.2 uM) is on record as “No Improvement”; in experiment [3] (additive concentration 12 uM), “No Improvement”; in experiment [3] (additive concentration 120 uM), “No Improvement”; in experiment [1] (additive concentration 5 mM), “Magnesium Cation shows”; in experiment [1] (additive concentration 10 mM), “Magnesium Cation shows”; in experiment [1] (additive concentration 20 mM), “Magnesium Cation shows”. Further, the Results entry is recorded as “Magnesium Cation shows” in experiment [1] (additive concentration 30 mM), “Magnesium Cation shows” in experiment [1] (additive concentration 40 mM), “Magnesium Cation shows” in experiment [1] (additive concentration 50 mM) and “No Improvement” in experiment [2].

Turning to `[Cl-].[Li+]` [Lithium Chloride], the Results entry in experiment [2] was “No Improvement”.

Regarding `CCCCCCn1cc[n+](C)c1.[Cl-]` [1-hexyl-3-methylimidazolium chloride], in experiment [2], the Results entry is recorded as “No Improvement”.

With `O=C([O-])[O-].[Na+].[Na+]` [Sodium Carbonate], the Results result in experiment [2] is “No Improvement”.

Turning to `[Cl][Fe][Cl]` [Iron (2) Chloride], in experiment [2], the Results entry is “No Improvement”.

Take `CCn1cc[n+](C)c1.[Cl-]` [1-ethyl-3-methylimidazolium chloride]: in experiment [2], the Results entry was “No Improvement”.

Consider `O=S(=O)([O-])[O-].[Mg+2]` [Magnesium Sulfate], for which the Results entry in experiment [3] (additive concentration 10 mM) is on record as “Improvement”; in experiment [1] (Additive Concentration 10 mM), “Magnesium Cation shows”; in experiment [1] (additive concentration 0.001M), “Magnesium Cation shows”; in experiment [1] (additive concentration 5 mM), “Magnesium Cation shows”; in experiment [1] (additive concentration 0.01M) it was “Magnesium Cation shows”; in experiment [1] (additive concentration 10 mM), “Magnesium Cation shows”. The Results result is “Magnesium Cation shows” in experiment [1] (additive concentration 20 mM); “Magnesium Cation shows” in experiment [1] (additive concentration 30 mM); “Magnesium Cation shows” in experiment [1] (additive concentration 40 mM); “Magnesium Cation shows” in experiment [1] (additive concentration 0.05M); “Magnesium Cation shows” in experiment [1] (additive concentration 50 mM); “Improvement in % Hb” in experiment [6] (Additive Concentration 10 mM). For the same compound, the “Notes (Hb stability vs Hb Collection Buffer)” value in experiment [4] (additive concentrations as in the 9th table), in experiment [1] (additive concentrations as in the 8th table) and in experiment [5] (additive concentrations as in the 10th table) was “Improved Hb” each time.

For the compound Calcium Gluconate, in experiment [2], the Results result is “No Improvement”.

On to Sodium hydroxylmethyl glycinate, for which, in experiment [2], the Results result was “No Improvement”.

Take `CC(=O)[O-].[K+]` [Potassium Acetate]: the Results entry in experiment [2] is “No Improvement”.

As to `O=C([O-])O.[Na+]` [Sodium Bicarbonate], the Results result in experiment [3] (additive concentration 0.0000895 mM), in experiment [3] (additive concentration 0.000895 mM), in experiment [3] (additive concentration 0.00895 mM), in experiment [3] (additive concentration 0.0895 mM), in experiment [3] (additive concentration 0.895 mM) and in experiment [3] (additive concentration 8.95 mM) was “No Improvement” in each case. Besides, the Results result in experiment [2] is given as “No Improvement”.

For `O=[N+]([O-])C1(Br)COCOC1` [5-bromo-5-nitro-1,3-dioxane], in experiment [2], the Results entry is given as “No Improvement”.

On to `C=CC1=C(C)c2cc3[n-]c(cc4[n-]c(cc5nc(cc1n2)C(C)=C5C=C)c(C)c4CCC(=O)O)c(CCC(=O)O)c3C.[Cl-].[Fe+3]` [Hemin], for which the Results entry in experiment [3] (additive concentration 0.0003%, pH 6.5) is given as “Improvement”; in experiment [3] (additive concentration 0.0003%; pH 6.4), “Improvement in % Hb”; in experiment [3] (additive concentration 0.0003%; pH 6.5), “Improvement in % Hb”; in experiment [3] (additive concentration 0.0003%; pH 6.6) it was “Improvement in % Hb”; in experiment [3] (additive concentration 0.0003%; pH 6.7) it was “Improvement in % Hb”; in experiment [3] (additive concentration 0.0003%; pH 6.8) it was “Improvement in % Hb”. For the same compound, the Results entry in experiment [3] (additive concentration 0.0003%; pH 6.9), in experiment [3] (additive concentration 0.0003%; pH 7.0), in experiment [3] (additive concentration 0.0003%; pH 7.1), in experiment [3] (additive concentration 0.0003%; pH 7.2), in experiment [3] (additive concentration 0.0003%; pH 7.3) and in experiment [3] (additive concentration 0.0003%; pH 7.4) was “Improvement in % Hb” throughout. Besides, the Results entry in experiment [3] (additive concentration 0.0003%; pH 7.5) is recorded as “Improvement in % Hb”. For the same compound, the “Notes (Hb stability vs Hb Collection Buffer)” value in experiment [4] (setting [7]), in experiment [1] (setting [8]) and in experiment [5] (setting [9]) was “Improved” throughout.

For the compound `N.N.O=S(=O)(O)O` [Ammonium Sulfate], the Results entry in experiment [2] is reported as “No Improvement”.

Take `CC(=O)[O-].[Na+]` [Sodium Acetate]: in experiment [2], the Results result is listed as “No Improvement”.

As to `O.O.[Ca+2].[Cl-].[Cl-]` [Calcium Chloride (dihydrate)], the Results result in experiment [2] is “Calcium cation shows”.

These data come from patent US20240402196A1 (Exact Sciences Corporation, priority 2018, published 2024).
